# Tests used:
# Format in all cases: cell-based, human
# [1] = system: PC-3 prostate cancer cells; assay: XTT cell viability assay, PC-3; settings: for IC50: XTT, 72 h
# Method: (§1) Human breast cancer (MCF-7), human lung cancer (H69AR), and human prostate cancer (PC-3) human nontumorigenic HEK-293 cells were obtained from the Health Protection Agency (UK) and Interlab Cell Line Collection (ICLC, Italy). Cells were maintained in RPMI medium (Sigma) containing 10% heat-inactivated fetal bovine serum, 1% penicillin, and 1% L-glutamine in a 37° humidified CO2 incubator.
# (§2) XTT (2,3-bis(2-methoxy-4-nitro-5-sulfophenyl)-2H-tetrazolium-5-carboxanilide) cell viability test was used to determine the cytotoxic activities of SPPs, which were dissolved in dimethyl sulfoxide (DMSO). Cells were seeded in 96-well plates at a density of 10^4/well and treated with increasing concentrations of SPP (1–250 μM) for 24, 48, and 72 h. After the incubation period, 100 μL of XTT was added to all experimental wells, and 96-well plates were incubated at 37 °C for 4 h. After the color change was observed, the absorbance values of the wells were recorded at 570 nm in the microplate reader (Tecan). The IC50 values for all synthesized compounds, representing the concentration needed to inhibit 50% of cancer cell proliferation, were determined using Biosoft CalcuSyn 2.1 software.[13] The following formula was used to calculate selectivity indexes (SIs), which represent the cytotoxic selectivity of SPPs against cancer cells and normal cells (HEK-293): […]
# [2] = system: MCF-7 breast cancer cells; assay: XTT cell viability assay, MCF-7; settings: for IC50: XTT, 72 h
# Method: as §1, §2
# H69AR lung cancer cells = assay: XTT cell viability assay, H69AR; settings: for IC50: XTT, 72 h
# Method: as §1, §2
# [3] = system: nontumorigenic HEK-293 cells; assay: XTT cell viability assay, HEK-293
# Method: as §1, §2
SMILES,IC50 ([1]; Homo sapiens) [µM],"IC50 ([2]; Homo sapiens, MCF7) [µM]","IC50 (H69AR lung cancer cells; Homo sapiens, H69AR) [µM]","IC50 ([3]; Homo sapiens, HEK293, 72 h) [µM]",selectivity index (SI) PC-3 ([1]; versus HEK-293),selectivity index (SI) MCF-7 ([2]; versus HEK-293),selectivity index (SI) H69AR (H69AR lung cancer cells; versus HEK-293),IC50 [1] [µM],IC50 [2] [µM],IC50 (H69AR lung cancer cells) [µM],IC50 ([3]; 72 h) [µM]
c1ccc(C2=NC3(CCCCC3)c3c(-c4ccccc4)nnc(-c4ccccc4)c32)cc1 [SPP1],35.4 ± 1.6,21.3 ± 0.4,27.1 ± 0.8,16.5 ± 1.2,–,–,–,–,–,–,–
Cc1cccc(C2=NC3(CCCCC3)c3c(-c4ccccc4)nnc(-c4ccccc4)c32)c1 [SPP3],8.3 ± 0.6,10.4 ± 1.5,9.8 ± 0.7,7.5 ± 1,0.90,0.72,0.76,–,–,–,–
Clc1ccc(C2=NC3(CCCCC3)c3c(-c4ccccc4)nnc(-c4ccccc4)c32)cc1Cl [SPP7],21.1 ± 2.1,69.2 ± 1.2,72.2 ± 3.4,55.8 ± 0.6,–,–,–,–,–,–,–
O=[N+]([O-])c1ccc(C2=NC3(CCCCC3)c3c(-c4ccccc4)nnc(-c4ccccc4)c32)cc1 [SPP9],89.2 ± 2.5,57.4 ± 2.8,62.1 ± 1.2,47.5 ± 2.6,–,–,–,–,–,–,–
Cc1ccc(-c2nnc(-c3ccccc3)c3c2C2(CCCCC2)N=C3c2ccccc2)cc1 [SPP11],80.5 ± 2.3,95.2 ± 2.4,75.7 ± 3.5,87.7 ± 1.6,–,–,–,–,–,–,–
Cc1ccc(-c2nnc(-c3ccccc3)c3c2C2(CCCCC2)N=C3c2ccc(C(C)(C)C)cc2)cc1 [SPP17],88.2 ± 3.5,61.9 ± 2.6,63.3 ± 1.4,74.6 ± 0.7,–,–,–,–,–,–,–
CC(C)(C)c1ccc(C2=NC3(CCCCC3)c3c(-c4ccc(F)cc4)nnc(-c4ccccc4)c32)cc1 [SPP18],59.6 ± 1.4,65.8 ± 1.4,77.4 ± 1.7,58.5 ± 1.3,–,–,–,–,–,–,–
Clc1ccc(C2=NC3(CCCCC3)c3c(-c4cccc(Br)c4)nnc(-c4ccccc4)c32)cc1 [SPP20],24.2 ± 0.8,47.6 ± 2,140 ± 2.4,18.3 ± 2.1,–,–,–,–,–,–,–
"N.N.[Cl][Pt][Cl] [cisplatin, reference compound]",–,–,–,–,–,–,–,14.9 ± 4.1,16.8 ± 2.4,18.2 ± 0.8,16.4 ± 0.4
"C#Cc1cccc(Nc2ncnc3cc(OCCOC)c(OCCOC)cc23)c1 [erlotinib, reference compound]",18.9 ± 3.2,19.4 ± 2,21.5 ± 1.8,14.7 ± 2.8,–,–,–,–,–,–,–

# Further lines, with some results ahead:
IC50 ([1]; Homo sapiens) [µM],"IC50 ([2]; Homo sapiens, MCF7) [µM]","IC50 (H69AR lung cancer cells; Homo sapiens, H69AR) [µM]",SMILES,"IC50 ([3]; Homo sapiens, HEK293, 72 h) [µM]",selectivity index (SI) PC-3 ([1]; versus HEK-293),selectivity index (SI) MCF-7 ([2]; versus HEK-293),selectivity index (SI) H69AR (H69AR lung cancer cells; versus HEK-293),IC50 [1] [µM],IC50 [2] [µM],IC50 (H69AR lung cancer cells) [µM],IC50 ([3]; 72 h) [µM]
44.2 ± 2.8,24.6 ± 0.3,18.7 ± 1.4,Cc1ccc(C2=NC3(CCCCC3)c3c(-c4ccccc4)nnc(-c4ccccc4)c32)cc1 [SPP2],37.7 ± 0.2,–,–,–,–,–,–,–
85.5 ± 1.2,67.1 ± 0.2,92 ± 3.2,CC(C)(C)c1ccc(C2=NC3(CCCCC3)c3c(-c4ccccc4)nnc(-c4ccccc4)c32)cc1 [SPP4],55.3 ± 3.6,–,–,–,–,–,–,–
70.6 ± 2.4,40.9 ± 1.8,62.7 ± 0.7,COc1ccccc1C1=NC2(CCCCC2)c2c(-c3ccccc3)nnc(-c3ccccc3)c21 [SPP5],45.4 ± 2,–,–,–,–,–,–,–
35.6 ± 0.4,48.2 ± 1.4,137 ± 1.6,Clc1ccc(C2=NC3(CCCCC3)c3c(-c4ccccc4)nnc(-c4ccccc4)c32)cc1 [SPP6],77.8 ± 1.7,–,–,–,–,–,–,–
35.5 ± 0.7,62.2 ± 3.5,71.9 ± 1.8,FC(F)(F)c1ccc(C2=NC3(CCCCC3)c3c(-c4ccccc4)nnc(-c4ccccc4)c32)cc1 [SPP8],38.2 ± 1.3,–,–,–,–,–,–,–
24.2 ± 0.8,12.6 ± 2.6,19.2 ± 0.4,Fc1ccc(-c2nnc(-c3ccccc3)c3c2C2(CCCCC2)N=C3c2ccccc2)cc1 [SPP12],40.8 ± 2.2,–,–,–,–,–,–,–
89.7 ± 2.4,66.4 ± 1.2,70.8 ± 1.3,Brc1cccc(-c2nnc(-c3ccccc3)c3c2C2(CCCCC2)N=C3c2ccccc2)c1 [SPP13],52.7 ± 1.4,–,–,–,–,–,–,–
61.4 ± 0.5,41.5 ± 0.8,55.3 ± 1.6,Cc1ccc(-c2nnc(-c3ccccc3)c3c2C2(CCCCC2)N=C3c2ccsc2)cc1 [SPP14],12.4 ± 0.2,–,–,–,–,–,–,–
2.8 ± 0.4,29.7 ± 2.2,35.2 ± 3.2,Cc1ccc(-c2nnc(-c3ccccc3)c3c2C2(CCCCC2)N=C3c2cccc(C)c2)cc1 [SPP15],24.1 ± 1.8,–,–,–,–,–,–,–
76.3 ± 0.2,58.3 ± 0.4,63.9 ± 2.8,Cc1cccc(C2=NC3(CCCCC3)c3c(-c4ccc(F)cc4)nnc(-c4ccccc4)c32)c1 [SPP16],64.4 ± 2.3,–,–,–,–,–,–,–
61 ± 2.2,38.4 ± 0.7,34.9 ± 2.1,CC(C)(C)c1ccc(C2=NC3(CCCCC3)c3c(-c4cccc(Br)c4)nnc(-c4ccccc4)c32)cc1 [SPP19],33.4 ± 1.6,–,–,–,–,–,–,–
42.7 ± 1.6,54.7 ± 2.9,21.8 ± 0.6,Cc1ccc(-c2nnc(-c3ccccc3)c3c2C2(CCCCC2)N=C3c2ccc(C(F)(F)F)cc2)cc1 [SPP21],47.1 ± 0.4,–,–,–,–,–,–,–

# Source: article PMC11154717, “Evaluation of Novel Spiro-pyrrolopyridazine Derivatives as Anticancer Compounds: In Vitro Selective Cytotoxicity, Induction of Apoptosis, EGFR Inhibitory Activity, and Molecular Docking Analysis” (ACS Omega, 2024)
